Numbered stars: 1 amine (or outer) side, 2 acyl side, 3 side chain; on linkers, the order of the positions; unused ones are H or OH. Bridge positions count the residues as written; N and C are the ends. Square brackets hold non-standard residues; d marks the D form. Peptide text beside a SMILES is read from it. * marks the point of attachment. Ala(piperidin-4-yl) = O=C([C@H](CC1CCN([*:3])CC1)N[*:1])[*:2]; DOTA = O=C(O)CN1CCN(CC(=O)O)CCN(CC(=O)*)CCN(CC(=O)O)CC1; Trp(7-Me) = Cc1cccc2c(C[C@H](N)C(=O)O)c[nH]c12; Phe(4-CH2NH2) = NCc1ccc(C[C@H](N)C(=O)O)cc1; 1Nal = N[C@@H](Cc1cccc2ccccc12)C(=O)O; 2Nal = N[C@@H](Cc1ccc2ccccc2c1)C(=O)O; NMetBuAla = CN[C@@H](CC(C)(C)C)C(=O)O; NMeChg = CN[C@H](C(=O)O)C1CCCCC1; tBuAla = CC(C)(C)C[C@H](N)C(=O)O; αMeD = C[C@](N)(CC(=O)O)C(=O)O; AllylGly = C=CC[C@H](N)C(=O)O; Chg = N[C@H](C(=O)O)C1CCCCC1; αMeP = C[C@@]1(C(=O)O)CCCN1; NMeS = CN[C@@H](CO)C(=O)O
Each compound was assayed against T1, human DLL3 (Homo sapiens, UniProt Q9NYJ7) (assay: Affinity determination by Surface Plasmon Resonance (SPR), Biacore, 1:1 binding model). Details: biotinylated human DLL3 on streptavidin chip, 25° C.; NB = nonbinding.
T1 construct: biotin (biotinylated)
T1 sequence (Q9NYJ7 27-618): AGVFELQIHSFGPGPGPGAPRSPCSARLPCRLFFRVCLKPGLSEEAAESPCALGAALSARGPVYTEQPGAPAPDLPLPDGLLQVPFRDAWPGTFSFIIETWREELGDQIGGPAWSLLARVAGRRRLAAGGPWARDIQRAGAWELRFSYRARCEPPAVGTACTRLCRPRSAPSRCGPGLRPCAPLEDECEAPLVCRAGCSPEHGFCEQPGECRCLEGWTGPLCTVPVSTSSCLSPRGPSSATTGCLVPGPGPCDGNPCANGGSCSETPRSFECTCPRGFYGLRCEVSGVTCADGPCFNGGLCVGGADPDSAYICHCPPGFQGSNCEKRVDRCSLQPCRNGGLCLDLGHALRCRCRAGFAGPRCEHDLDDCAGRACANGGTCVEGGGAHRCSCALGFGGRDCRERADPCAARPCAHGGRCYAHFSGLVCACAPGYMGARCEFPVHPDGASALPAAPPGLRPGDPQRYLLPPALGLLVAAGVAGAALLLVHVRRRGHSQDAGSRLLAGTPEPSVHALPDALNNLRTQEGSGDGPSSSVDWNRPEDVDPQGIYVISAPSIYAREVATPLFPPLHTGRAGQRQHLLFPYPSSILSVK
In short: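 SPR with biotinylated human DLL3 captured on a streptavidin chip, with a reference surface subtracted. Samples were injected at several concentrations at 100 μL/min in phosphate buffer with 137 mM NaCl, 2.7 mM KCl, 0.05% P20 and 2% DMSO. Kinetic and affinity constants came from a 1:1 binding fit.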

Row | Compound | Kd [nM]
1 | CC(=O)N[C@@H](CC1CCNCC1)C(=O)N[C@@H](CO)C(=O)N[C@@H](CC(=O)O)C(=O)N[C@H]1CSSC[C@@H](C(=O)N2CCC[C@@]2(C)C(=O)N[C@@H](Cc2ccccc2)C(=O)N[C@@H](CC(=O)O)C(N)=O)NC(=O)[C@H](CC(N)=O)NC(=O)[C@H](Cc2ccc3ccccc3c2)NC(=O)[C@H](Cc2ccc(CNC(=O)CN3CCN(CC(=O)O)CCN(CC(=O)O)CCN(CC(=O)O)CC3)cc2)NC(=O)[C@H](C2CCCCC2)N(C)C(=O)[C@H](Cc2cccc3ccccc23)NC1=O [compound 181, Ac-[3-(4-piperidinyl)-Ala]-S-D-C(3)-(1Nal)-(NMe-Chg)-[PAF(DOTA)]-(2Nal)-N-C(3)-(aMe-P)-F -D-CONH2] (Ac-[Ala(piperidin-4-yl)]SDC[1Nal][NMeChg][Phe(4-CH2NH2)](DOTA)[2Nal]NC[αMeP]FD-NH2; disulfide 4-10) | > 30
2 | CC(=O)N[C@H](C(=O)N[C@@H](CO)C(=O)N[C@@H](CC(=O)O)C(=O)N[C@H]1CSSC[C@@H](C(=O)N2CCC[C@@]2(C)C(=O)N[C@@H](Cc2ccccc2)C(=O)N[C@@H](CC(=O)O)C(=O)N[C@H](CCCCNC(=O)CN2CCN(CC(=O)O)CCN(CC(=O)O)CCN(CC(=O)O)CC2)C(N)=O)NC(=O)[C@H](CC(N)=O)NC(=O)[C@H](Cc2ccc3ccccc3c2)NC(=O)[C@H](CC2CCNCC2)NC(=O)[C@H](CC(C)(C)C)N(C)C(=O)[C@H](Cc2cccc3ccccc23)NC1=O)C1CCCCC1 [compound 182, Ac-Chg-S-D-C(3)-(1Nal)-(NMe-Tba)-[3-(4-piperidinyl)-Ala]-(2Nal)-N-C(3)-(aMe-P)-F -D-[D-Lys(DOTA)]-NH2] (Ac-[Chg]SDC[1Nal][NMetBuAla][Ala(piperidin-4-yl)][2Nal]NC[αMeP]FD[dK](DOTA)-NH2; disulfide 4-10) | 5.39
3 | CC(=O)N[C@H](C(=O)N[C@@H](CO)C(=O)N[C@@H](CC(=O)O)C(=O)N[C@H]1CSSC[C@@H](C(=O)N2CCC[C@@]2(C)C(=O)N[C@@H](Cc2ccccc2)C(=O)N[C@@H](CC(=O)O)C(=O)N[C@H](CCCCNC(=O)CN2CCN(CC(=O)O)CCN(CC(=O)O)CCN(CC(=O)O)CC2)C(N)=O)NC(=O)[C@H](CC(N)=O)NC(=O)[C@H](Cc2ccc3ccccc3c2)NC(=O)[C@H](CC2CCNCC2)NC(=O)[C@H](C2CCCCC2)N(C)C(=O)[C@H](Cc2cccc3ccccc23)NC1=O)C1CCCCC1 [compound 183, Ac-Chg-S-D-C(3)-(1Nal)-(NMe-Chg)-[3-(4-piperidinyl)-Ala]-(2Nal)-N-C(3)-(aMe-P)-F -D-[D-Lys(DOTA)]-NH2] (Ac-[Chg]SDC[1Nal][NMeChg][Ala(piperidin-4-yl)][2Nal]NC[αMeP]FD[dK](DOTA)-NH2; disulfide 4-10) | > 30
4 | CC(=O)N[C@H](C(=O)N[C@@H](CO)C(=O)N[C@@H](CC(=O)O)C(=O)N[C@H]1CSSC[C@@H](C(=O)N2CCC[C@@]2(C)C(=O)N[C@@H](Cc2ccccc2)C(=O)N[C@@H](CC(=O)O)C(=O)N[C@H](CCCCNC(=O)CN2CCN(CC(=O)O)CCN(CC(=O)O)CCN(CC(=O)O)CC2)C(N)=O)NC(=O)[C@H](CC(N)=O)NC(=O)[C@H](Cc2c[nH]c3c(C)cccc23)NC(=O)[C@H](CC2CCNCC2)NC(=O)[C@H](CC(C)(C)C)N(C)C(=O)[C@H](Cc2cccc3ccccc23)NC1=O)C1CCCCC1 [compound 184, Ac-Chg-S-D-C(3)-(1Nal)-(NMe-Tba)-[3-(4-piperidinyl)-Ala]-(7Me-W)-N-C(3)-(aMe-P)-F -D-[D-Lys(DOTA)]-NH2] (Ac-[Chg]SDC[1Nal][NMetBuAla][Ala(piperidin-4-yl)][Trp(7-Me)]NC[αMeP]FD[dK](DOTA)-NH2; disulfide 4-10) | > 30
5 | CC(=O)N[C@H](C(=O)N[C@@H](CO)C(=O)N[C@@H](CC(=O)O)C(=O)N[C@H]1CSSC[C@@H](C(=O)N2CCC[C@@]2(C)C(=O)N[C@@H](Cc2ccccc2)C(=O)N[C@@H](CC(=O)O)C(=O)N[C@H](CCCCNC(=O)CN2CCN(CC(=O)O)CCN(CC(=O)O)CCN(CC(=O)O)CC2)C(N)=O)NC(=O)[C@H](CC(N)=O)NC(=O)[C@H](Cc2c[nH]c3c(C)cccc23)NC(=O)[C@H](CC2CCNCC2)NC(=O)[C@H](C2CCCCC2)N(C)C(=O)[C@H](Cc2cccc3ccccc23)NC1=O)C1CCCCC1 [compound 185, Ac-Chg-S-D-C(3)-(1Nal)-(NMe-Chg)-[3-(4-piperidinyl)-Ala]-(7Me-W)-N-C(3)-(aMe-P)-F -D-[D-Lys(DOTA)]-NH2] (Ac-[Chg]SDC[1Nal][NMeChg][Ala(piperidin-4-yl)][Trp(7-Me)]NC[αMeP]FD[dK](DOTA)-NH2; disulfide 4-10) | > 30
6 | CC(=O)N[C@H](C(=O)N[C@@H](CO)C(=O)N[C@@H](CC(=O)O)C(=O)N[C@H]1C/C=C/C[C@@H](C(=O)N2CCC[C@@]2(C)C(=O)N[C@@H](Cc2ccccc2)C(=O)N[C@@H](CC(=O)O)C(=O)N[C@H](CCCCNC(=O)CN2CCN(CC(=O)O)CCN(CC(=O)O)CCN(CC(=O)O)CC2)C(N)=O)NC(=O)[C@H](CC(N)=O)NC(=O)[C@H](Cc2ccc3ccccc3c2)NC(=O)[C@H](CC2CCNCC2)NC(=O)[C@H](CC(C)(C)C)N(C)C(=O)[C@H](Cc2cccc3ccccc23)NC1=O)C1CCCCC1 [compound 186, Ac-Chg-S-D-AllyG(4)-(1Nal)-(NMe-Tba)-[3-(4-piperidinyl)-Ala]-(2Nal)-N-AllyG(4)-(aMe-P)-F -D-[D-Lys(DOTA)]-NH2] (Ac-[Chg]SD[AllylGly][1Nal][NMetBuAla][Ala(piperidin-4-yl)][2Nal]N[AllylGly][αMeP]FD[dK](DOTA)-NH2; staple (E) 4-10) | > 30

The remaining lines, values ahead:

Row | Kd [nM] | Compound
7 | > 30 | CC(=O)N[C@@H](CC1CCNCC1)C(=O)N[C@@H](CO)C(=O)N[C@@H](CC(=O)O)C(=O)N[C@H]1CC=CC[C@@H](C(=O)N2CCC[C@@]2(C)C(=O)N[C@@H](Cc2ccccc2)C(=O)N[C@@H](CC(=O)O)C(N)=O)NC(=O)[C@H](CC(N)=O)NC(=O)[C@H](Cc2ccc3ccccc3c2)NC(=O)[C@H](Cc2ccc(CNC(=O)CN3CCN(CC(=O)O)CCN(CC(=O)O)CCN(CC(=O)O)CC3)cc2)NC(=O)[C@H](CC(C)(C)C)N(C)C(=O)[C@H](Cc2cccc3ccccc23)NC1=O [compound 187, Ac-[3-(4-piperidinyl)-Ala]-S-D-AllyG(4)-(1Nal)-(NMe-Tba)-[PAF(DOTA)]-(2Nal)-N-AllyG(4)-(aMe-P)-F -D-CONH2] (Ac-[Ala(piperidin-4-yl)]SD[AllylGly][1Nal][NMetBuAla][Phe(4-CH2NH2)](DOTA)[2Nal]N[AllylGly][αMeP]FD-NH2; staple 4-10 (inferred))
8 | > 30 | CC(=O)N[C@@H](CO)C(=O)N[C@@H](CC(=O)O)C(=O)N[C@H]1C/C=C/C[C@@H](C(=O)N2CCC[C@@]2(C)C(=O)N[C@@H](Cc2ccccc2)C(=O)N[C@@H](CC(=O)O)C(=O)N[C@H](CCCCNC(=O)CN2CCN(CC(=O)O)CCN(CC(=O)O)CCN(CC(=O)O)CC2)C(N)=O)NC(=O)[C@H](CC(N)=O)NC(=O)[C@H](Cc2ccc3ccccc3c2)NC(=O)[C@H](CC2CCNCC2)NC(=O)[C@H](CC(C)(C)C)N(C)C(=O)[C@H](Cc2cccc3ccccc23)NC1=O [compound 189, Ac-S-D-AllyG(4)-(1Nal)-(NMe-Tba)-[3-(4-piperidinyl)-Ala]-(2Nal)-N-AllyG(4)-(aMe-P)-F -D-[D-Lys(DOTA)]-NH2] (Ac-SD[AllylGly][1Nal][NMetBuAla][Ala(piperidin-4-yl)][2Nal]N[AllylGly][αMeP]FD[dK](DOTA)-NH2; staple (E) 3-9)
9 | 1.51 | CC(=O)N[C@@H](CC1CCNCC1)C(=O)N(C)[C@@H](CO)C(=O)N[C@@H](CC(=O)O)C(=O)N[C@H]1C/C=C/C[C@@H](C(=O)N2CCC[C@@]2(C)C(=O)N[C@@H](Cc2ccccc2)C(=O)N[C@@H](CC(=O)O)C(N)=O)NC(=O)[C@H](CC(N)=O)NC(=O)[C@H](Cc2ccc3ccccc3c2)NC(=O)[C@H](Cc2ccc(CNC(=O)CN3CCN(CC(=O)O)CCN(CC(=O)O)CCN(CC(=O)O)CC3)cc2)NC(=O)[C@H](CC(C)(C)C)NC(=O)[C@H](Cc2cccc3ccccc23)NC1=O [compound 190, Ac-[3-(4-piperidinyl)-Ala]-(NMe-Ser)-D-AllyG(4)-(1Nal)-(t-Bu-Ala)-[PAF(DOTA)]-(2Nal)-N-AllyG(4)-(aMe-P)-F-D-CONH2] (Ac-[Ala(piperidin-4-yl)][NMeS]D[AllylGly][1Nal][tBuAla][Phe(4-CH2NH2)](DOTA)[2Nal]N[AllylGly][αMeP]FD-NH2; staple (E) 4-10)
10 | 0.27 | CC(=O)N[C@@H](CC1CCNCC1)C(=O)N[C@@H](CO)C(=O)N[C@@](C)(CC(=O)O)C(=O)N[C@H]1C/C=C/C[C@@H](C(=O)N2CCC[C@@]2(C)C(=O)N[C@@H](Cc2ccccc2)C(=O)N[C@@H](CC(=O)O)C(N)=O)NC(=O)[C@H](CC(N)=O)NC(=O)[C@H](Cc2ccc3ccccc3c2)NC(=O)[C@H](Cc2ccc(CNC(=O)CN3CCN(CC(=O)O)CCN(CC(=O)O)CCN(CC(=O)O)CC3)cc2)NC(=O)[C@H](CC(C)(C)C)NC(=O)[C@H](Cc2cccc3ccccc23)NC1=O [compound 194, Ac-[3-(4-piperidinyl)-Ala]-S-(aMe-Asp)-AllyG(4)-(1Nal)-(t-Bu-Ala)-[PAF(DOTA)]-(2Nal)-N-AllyG(4)-(aMe-P)-F-D-CONH2] (Ac-[Ala(piperidin-4-yl)]S[αMeD][AllylGly][1Nal][tBuAla][Phe(4-CH2NH2)](DOTA)[2Nal]N[AllylGly][αMeP]FD-NH2; staple (E) 4-10)

Reference: US20250186541A1, “DLL3 TARGETING PEPTIDES AND CONSTRUCTS THEREOF” (MARIANA ONCOLOGY INC., priority 2023, published 2025)
